The values below are quoted from earlier work in patent US20170304196A1, “ORALLY DISINTEGRATING TABLET AND METHOD FOR PRODUCING SAME” (FUJIFILM CORPORATION, priority 2015, published 2017).

For this data set the following is noted: anionic substance.

For orientation: pKa means the negative logarithm of the acid dissociation constant. With `CCCCCCCCCCCCOS(=O)(=O)[O-].[Na+]` [sodium lauryl sulfate], the pKa was 1.9.
